Patent US9248124B2, “Use of inhibitors of IκB kinase for the treatment of cancer” (Millennium Pharmaceuticals, Inc., priority 2001, dated 2016)

Tests used:
Akt phosphorylation = test: Phosphorylation of Akt triggered by IL-6 in MM.1S cells; type: cell-based, human; conditions: compound 1 pre-treatment, data not shown
[1] = system: ICAM-1 expression on MM.1S and RPMI8226 cells; test: Flow cytometry of TNFα-induced ICAM-1 expression on MM cells; type: cell-based, human; conditions: TNFα 5 ng/mL, compound 1 10 μM, 24 h, FIG. 10
Method: For cell cycle analysis, MM cells cultured for 24-48 h in compound 1 (10 μM), Dex (1 μM); IL-6 (20 ng/mL), or control media were harvested, washed with phosphate-buffered saline (PBS), fixed with 70% ethanol, and treated with 10 μg/mL of RNase (Roche Diagnostics Corp., Indianapolis, Ind.). Cells were then stained with propidium iodine (PI, Sigma) (5 μg/mL). For detection of ICAM-1 expression, MM cells cultured in TNFα (5 ng/mL) in the presence or absence of compound 1 (10 μM) were harvested, washed with PBS, and stained with mouse IgG isotype control or FITC-conjugated mouse anti-human CD54 Ab. Both cell cycle profile and ICAM-1 expression were determined using an Epics (Coulter Immunology, Hialeah, Fla.) flow cytometer, as in prior studies (Hideshima et al., Oncogene 20:4519 (2001)).

In the case of O=C(Nc1cc(Cl)cc2c1[nH]c1cnccc12)c1cccnc1 [compound 1, N-(6-chloro-9H-β-carbolin-8-yl)-nicotinamide], the “Phosphorylation of Akt triggered by IL-6” value (Akt phosphorylation) is reported as “unaffected” and the “TNFα-induced upregulation of ICAM-1 expression” value [1] is reported as “inhibits”.
